System: human plasma
Experiment: plasma binding by partition extraction in dimethylsiloxane-coated 96-well plates
Format: in vitro ADME
Conditions: for counts in the polymer coating: one plate
Description: 96-wells deepwell plates (lot 1450-401 Perkin-Elmer Lifesciences) were coated with dimethylsiloxane by making the solutions A-H here below in n-hexane. The used dimethylsiloxane (Silicone rubber, GE Silicones, Bergen op Zoom, The Netherlands) has a density of 1.06. Solution H contains 9.54 g dimethylsiloxane in 300 ml n-hexane.
From solutions A-H 100 μl is pipetted in row A-H of each plate. Plates were dried to air for minimally 18 hours (overnight).
To each dilution of plasma (solutions 1-12) an identical amount of the compound to be tested is added (about […]/200 μl solution). […] The solutions are incubated with the compound overnight at 4°.
The plasma solutions 1-12 are added to corresponding columns 1-12 of each plate (200 μl/well). Also 200 μl was added to a separate vessel to be able to correct for (plasma concentration dependent) solubilization. The next day the plates are emptied, washed once with aqua bidest and dried. When sufficient dry in all wells 200 μl counting solution (Optiphase Hisafe 2, Perkin Elmer Lifesciences) is added and the plates are covered. After incubation for minimally 4 hours under gently shaking the radioactivity in each plate is determined using liquid scintillation counting with a MicroBeta device (Perkin Elmer).
Additionally a total count was determined for each well. The total count is the count in the polymer coating+the count in the remaining fluid. The latter was determined by isolating 25 μl from solution in each well prior to emptying, and mixing with Optiphase (Perkin Elmer) followed by liquid scintillation counting.
1. For each datapoint for which the total count was determined, the recovery of total radioactivity was determined by comparing with the counts of the reference spiking solution. Cells with a total recovery <75% were excluded from further data analysis.
2. From all rows containing polymer, the a-specific binding, i.e. the corresponding counts from the row without polymer, was substracted.
3. Curve fitting was applied using the following formula for each cell:
Predicted counts in coating=Tc/((1/ffp+1/fp−1)×(fp×Vw)/Kpdms/Vp)), where
The above formula was fitted using ffp and Kpdms target parameters to be optimized using the least squares regression method over all wells that were included in the data analysis, by calculating the squared difference between the measured counts in the coating and the predicted counts in the coating. Results

C=C1CC[C@H](O)C/C1=C/C=C1\CCC[C@]2(C)[C@@H]([C@H](C)CCCC(C)(C)O)CC[C@@H]12 [25-hydroxy vitamin D3] was tested, and the “Free fraction ± s.d.” value (fitted free fraction for 100% plasma, ratio between free fraction and total concentration, average of six 96 well plates) was 0.000502 ± 0.000060, the “counts in the polymer coating” value (plasma 0 ml/ml, coating 0 nl) was 1529 and the “counts in the polymer coating” value (plasma 0 ml/ml, coating 4.1 nl) was 2095. The “counts in the polymer coating” value (plasma 0 ml/ml, coating 10.2 nl) was 3498, the “counts in the polymer coating” value (plasma 0 ml/ml, coating 25.6 nl) was 4260 and the “counts in the polymer coating” value (plasma 0 ml/ml, coating 64 nl) was 5814. The “counts in the polymer coating” value (plasma 0 ml/ml, coating 160 nl) was 7292, the “counts in the polymer coating” value (plasma 0 ml/ml, coating 400 nl) was 8015 and the “counts in the polymer coating” value (plasma 0 ml/ml, coating 1000 nl) was 8491. The “counts in the polymer coating” value (plasma 0.0005 ml/ml, coating 0 nl) was 639, the “counts in the polymer coating” value (plasma 0.0005 ml/ml, coating 4.1 nl) was 1753 and the “counts in the polymer coating” value (plasma 0.0005 ml/ml, coating 10.2 nl) was 2581. The “counts in the polymer coating” value (plasma 0.0005 ml/ml, coating 25.6 nl) was 4428, the “counts in the polymer coating” value (plasma 0.0005 ml/ml, coating 64 nl) was 8145 and the “counts in the polymer coating” value (plasma 0.0005 ml/ml, coating 160 nl) was 12361. The “counts in the polymer coating” value (plasma 0.0005 ml/ml, coating 400 nl) was 15727, the “counts in the polymer coating” value (plasma 0.0005 ml/ml, coating 1000 nl) was 16960 and the “counts in the polymer coating” value (plasma 0.0008 ml/ml, coating 0 nl) was 495. The “counts in the polymer coating” value (plasma 0.0008 ml/ml, coating 4.1 nl) was 1176, the “counts in the polymer coating” value (plasma 0.0008 ml/ml, coating 10.2 nl) was 1649 and the “counts in the polymer coating” value (plasma 0.0008 ml/ml, coating 25.6 nl) was 3019. The “counts in the polymer coating” value (plasma 0.0008 ml/ml, coating 64 nl) was 6029, the “counts in the polymer coating” value (plasma 0.0008 ml/ml, coating 160 nl) was 10164 and the “counts in the polymer coating” value (plasma 0.0008 ml/ml, coating 400 nl) was 13748. The “counts in the polymer coating” value (plasma 0.0008 ml/ml, coating 1000 nl) was 15479, the “counts in the polymer coating” value (plasma 0.001 ml/ml, coating 0 nl) was 419 and the “counts in the polymer coating” value (plasma 0.001 ml/ml, coating 4.1 nl) was 972. The “counts in the polymer coating” value (plasma 0.001 ml/ml, coating 10.2 nl) was 1545, the “counts in the polymer coating” value (plasma 0.001 ml/ml, coating 25.6 nl) was 2658 and the “counts in the polymer coating” value (plasma 0.001 ml/ml, coating 64 nl) was 5501. The “counts in the polymer coating” value (plasma 0.001 ml/ml, coating 160 nl) was 9700, the “counts in the polymer coating” value (plasma 0.001 ml/ml, coating 400 nl) was 13183 and the “counts in the polymer coating” value (plasma 0.001 ml/ml, coating 1000 nl) was 15022. The “counts in the polymer coating” value (plasma 0.003 ml/ml, coating 0 nl) was 151, the “counts in the polymer coating” value (plasma 0.003 ml/ml, coating 4.1 nl) was 399 and the “counts in the polymer coating” value (plasma 0.003 ml/ml, coating 10.2 nl) was 603. The “counts in the polymer coating” value (plasma 0.003 ml/ml, coating 25.6 nl) was 1258, the “counts in the polymer coating” value (plasma 0.003 ml/ml, coating 64 nl) was 2547 and the “counts in the polymer coating” value (plasma 0.003 ml/ml, coating 160 nl) was 5687. The “counts in the polymer coating” value (plasma 0.003 ml/ml, coating 400 nl) was 9284, the “counts in the polymer coating” value (plasma 0.003 ml/ml, coating 1000 nl) was 11307 and the “counts in the polymer coating” value (plasma 0.005 ml/ml, coating 0 nl) was 109. The “counts in the polymer coating” value (plasma 0.005 ml/ml, coating 4.1 nl) was 257, the “counts in the polymer coating” value (plasma 0.005 ml/ml, coating 10.2 nl) was 428 and the “counts in the polymer coating” value (plasma 0.005 ml/ml, coating 25.6 nl) was 866. For the same molecule, the “counts in the polymer coating” value (plasma 0.005 ml/ml, coating 64 nl) was 1719, the “counts in the polymer coating” value (plasma 0.005 ml/ml, coating 160 nl) was 3804 and the “counts in the polymer coating” value (plasma 0.005 ml/ml, coating 400 nl) was 7410. The “counts in the polymer coating” value (plasma 0.005 ml/ml, coating 1000 nl) was 10375, the “counts in the polymer coating” value (plasma 0.008 ml/ml, coating 0 nl) was 95 and the “counts in the polymer coating” value (plasma 0.008 ml/ml, coating 4.1 nl) was 212. The “counts in the polymer coating” value (plasma 0.008 ml/ml, coating 10.2 nl) was 372, the “counts in the polymer coating” value (plasma 0.008 ml/ml, coating 25.6 nl) was 686 and the “counts in the polymer coating” value (plasma 0.008 ml/ml, coating 64 nl) was 1331. For the same molecule, the “counts in the polymer coating” value (plasma 0.008 ml/ml, coating 160 nl) was 3035, the “counts in the polymer coating” value (plasma 0.008 ml/ml, coating 400 nl) was 5863 and the “counts in the polymer coating” value (plasma 0.008 ml/ml, coating 1000 nl) was 9044. The “counts in the polymer coating” value (plasma 0.01 ml/ml, coating 0 nl) was 90, the “counts in the polymer coating” value (plasma 0.01 ml/ml, coating 4.1 nl) was 169 and the “counts in the polymer coating” value (plasma 0.01 ml/ml, coating 10.2 nl) was 293. The “counts in the polymer coating” value (plasma 0.01 ml/ml, coating 25.6 nl) was 523, the “counts in the polymer coating” value (plasma 0.01 ml/ml, coating 64 nl) was 1054 and the “counts in the polymer coating” value (plasma 0.01 ml/ml, coating 160 nl) was 2408. For the same molecule, the “counts in the polymer coating” value (plasma 0.01 ml/ml, coating 400 nl) was 5093, the “counts in the polymer coating” value (plasma 0.01 ml/ml, coating 1000 nl) was 8309 and the “counts in the polymer coating” value (plasma 0.02 ml/ml, coating 0 nl) was 82. The “counts in the polymer coating” value (plasma 0.02 ml/ml, coating 4.1 nl) was 98, the “counts in the polymer coating” value (plasma 0.02 ml/ml, coating 10.2 nl) was 182 and the “counts in the polymer coating” value (plasma 0.02 ml/ml, coating 25.6 nl) was 278. The “counts in the polymer coating” value (plasma 0.02 ml/ml, coating 64 nl) was 641, the “counts in the polymer coating” value (plasma 0.02 ml/ml, coating 160 nl) was 1394 and the “counts in the polymer coating” value (plasma 0.02 ml/ml, coating 400 nl) was 3130. For the same molecule, the “counts in the polymer coating” value (plasma 0.02 ml/ml, coating 1000 nl) was 5582, the “counts in the polymer coating” value (plasma 0.03 ml/ml, coating 0 nl) was 62 and the “counts in the polymer coating” value (plasma 0.03 ml/ml, coating 4.1 nl) was 75. The “counts in the polymer coating” value (plasma 0.03 ml/ml, coating 10.2 nl) was 130, the “counts in the polymer coating” value (plasma 0.03 ml/ml, coating 25.6 nl) was 237 and the “counts in the polymer coating” value (plasma 0.03 ml/ml, coating 64 nl) was 409. For the same molecule, the “counts in the polymer coating” value (plasma 0.03 ml/ml, coating 160 nl) was 988, the “counts in the polymer coating” value (plasma 0.03 ml/ml, coating 400 nl) was 2209 and the “counts in the polymer coating” value (plasma 0.03 ml/ml, coating 1000 nl) was 4228. For the same molecule, the “counts in the polymer coating” value (plasma 0.04 ml/ml, coating 0 nl) was 55, the “counts in the polymer coating” value (plasma 0.04 ml/ml, coating 4.1 nl) was 68 and the “counts in the polymer coating” value (plasma 0.04 ml/ml, coating 10.2 nl) was 87. For the same molecule, the “counts in the polymer coating” value (plasma 0.04 ml/ml, coating 25.6 nl) was 153, the “counts in the polymer coating” value (plasma 0.04 ml/ml, coating 64 nl) was 342 and the “counts in the polymer coating” value (plasma 0.04 ml/ml, coating 160 nl) was 722. For the same molecule, the “counts in the polymer coating” value (plasma 0.04 ml/ml, coating 400 nl) was 1681, the “counts in the polymer coating” value (plasma 0.04 ml/ml, coating 1000 nl) was 3295 and the “counts in the polymer coating” value (plasma 0.05 ml/ml, coating 0 nl) was 47. The “counts in the polymer coating” value (plasma 0.05 ml/ml, coating 4.1 nl) was 48, the “counts in the polymer coating” value (plasma 0.05 ml/ml, coating 10.2 nl) was 70 and the “counts in the polymer coating” value (plasma 0.05 ml/ml, coating 25.6 nl) was 153. For the same molecule, the “counts in the polymer coating” value (plasma 0.05 ml/ml, coating 64 nl) was 296, the “counts in the polymer coating” value (plasma 0.05 ml/ml, coating 160 nl) was 588 and the “counts in the polymer coating” value (plasma 0.05 ml/ml, coating 400 nl) was 1354. The “counts in the polymer coating” value (plasma 0.05 ml/ml, coating 1000 nl) was 2501.
